Laboratory results: BindingDB's records for doi:10.1038/nchembio.2209 (Dana-Farber Cancer Institute, 2016)
pIC50, pKd, pKi: −log10 of the molar value.

Columns and labels:
[1] = target: T1, Bromodomain testis-specific protein [21-137] (Homo sapiens, UniProt Q58F21); test: AlphaScreen BRD Binding Assay; conditions: pH 7.5; 25 °C
T1 construct: 21-137

[2] = target: T2, Bromodomain-containing protein 4 [44-168] (Human, UniProt O60885); test: AlphaScreen BRD Binding Assay; conditions: pH 7.5; 25 °C
T2 construct: 44-168

[3] = target: T2, Bromodomain-containing protein 4 [44-168]; test: BROMOscan Assay
[4] = target: T3, Bromodomain-containing protein 4 [44-168,333-460] (Homo sapiens, UniProt O60885); test: BROMOscan Assay
T3 construct: 44-168,333-460

[5] = target: T1, Bromodomain testis-specific protein [21-137]; test: Bromodomains Assay for DiscoveRx Gene Symbol
[6] = target: T4, Bromodomain testis-specific protein [251-382] (Homo sapiens, UniProt Q58F21); test: Bromodomains Assay for DiscoveRx Gene Symbol
T4 construct: 251-382

[7] = target: T5, Bromodomain-containing protein 3 [306-416] (Homo sapiens, UniProt Q15059); test: Bromodomains Assay for DiscoveRx Gene Symbol
T5 construct: 306-416

[8] = target: T6, Bromodomain-containing protein 3 [24-144,306-416] (Homo sapiens, UniProt Q15059); test: Bromodomains Assay for DiscoveRx Gene Symbol
T6 construct: 24-144,306-416

[9] = target: T7, Bromodomain testis-specific protein [21-137,251-382] (Homo sapiens, UniProt Q58F21); test: Bromodomains Assay for DiscoveRx Gene Symbol
T7 construct: 21-137,251-382

[10] = target: T8, Bromodomain-containing protein 3 [24-144] (Homo sapiens, UniProt Q15059); test: Bromodomains Assay for DiscoveRx Gene Symbol
T8 construct: 24-144

[11] = target: T7, Bromodomain testis-specific protein [21-137,251-382]; test: BROMOscan Assay
[12] = target: T9, Bromodomain-containing protein 2 [71-194,348-455] (Homo sapiens, UniProt P25440); test: Bromodomains Assay for DiscoveRx Gene Symbol
T9 construct: 71-194,348-455
T9 sequence (P25440 as listed by the source): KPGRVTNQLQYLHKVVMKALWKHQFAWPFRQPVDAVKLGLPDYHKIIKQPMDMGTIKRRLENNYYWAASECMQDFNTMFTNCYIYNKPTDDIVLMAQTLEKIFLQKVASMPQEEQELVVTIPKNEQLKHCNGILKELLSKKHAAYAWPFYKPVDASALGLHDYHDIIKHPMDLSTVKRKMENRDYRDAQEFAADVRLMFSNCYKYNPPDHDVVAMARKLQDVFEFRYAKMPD

T5 sequence (Q15059 306-416): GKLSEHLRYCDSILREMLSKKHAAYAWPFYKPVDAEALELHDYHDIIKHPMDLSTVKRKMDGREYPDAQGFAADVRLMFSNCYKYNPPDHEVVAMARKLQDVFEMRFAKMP
T8 sequence (Q15059 24-144): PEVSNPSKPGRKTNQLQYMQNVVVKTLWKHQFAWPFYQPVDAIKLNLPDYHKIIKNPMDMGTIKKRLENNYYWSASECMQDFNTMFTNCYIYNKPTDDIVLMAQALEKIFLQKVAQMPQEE
T6 sequence (Q15059 as listed by the source): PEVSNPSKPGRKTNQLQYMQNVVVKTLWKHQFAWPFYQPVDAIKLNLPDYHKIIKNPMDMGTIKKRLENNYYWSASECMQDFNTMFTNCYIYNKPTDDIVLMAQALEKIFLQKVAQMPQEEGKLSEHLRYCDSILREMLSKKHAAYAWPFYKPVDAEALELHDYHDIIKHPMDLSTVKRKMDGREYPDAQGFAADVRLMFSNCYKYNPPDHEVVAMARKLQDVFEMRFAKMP

| pIC50 [1] | pIC50 [2] | SMILES | other results |
| --- | --- | --- | --- |
| 7.39 | 7.74 | COC(=O)CC1N=C(c2ccc(Cl)cc2)c2c(sc(C(=O)NCCOCCNC(=O)Cn3c(=O)n([C@H](C)c4ccccn4)c4c5cc(OC)c(-c6c(C)noc6C)cc5ncc43)c2C)-n2c(C)nnc21 (stereo partly drawn) [2S+IBET-PEG1 (24)] |  |
| 7.63 | 8.24 | COC(=O)CC1N=C(c2ccc(Cl)cc2)c2c(sc(C(=O)NCCOCCOCCNC(=O)Cn3c(=O)n([C@H](C)c4ccccn4)c4c5cc(OC)c(-c6c(C)noc6C)cc5ncc43)c2C)-n2c(C)nnc21 (stereo partly drawn) [2S+IBET-PEG2 (25)] |  |
| 7.50 | 7.95 | COC(=O)CC1N=C(c2ccc(Cl)cc2)c2c(sc(C(=O)NCCOCCOCCOCCNC(=O)Cn3c(=O)n([C@H](C)c4ccccn4)c4c5cc(OC)c(-c6c(C)noc6C)cc5ncc43)c2C)-n2c(C)nnc21 (stereo partly drawn) [2S+IBET-PEG3 (26)] |  |
| 7.66 | 7.99 | COC(=O)CC1N=C(c2ccc(Cl)cc2)c2c(sc(C(=O)NCCOCCOCCOCCOCCNC(=O)Cn3c(=O)n([C@H](C)c4ccccn4)c4c5cc(OC)c(-c6c(C)noc6C)cc5ncc43)c2C)-n2c(C)nnc21 (stereo partly drawn) [2S+IBET-PEG4 (27)] |  |
| 7.88 | 7.76 | COC(=O)CC1N=C(c2ccc(Cl)cc2)c2c(sc(C(=O)NCCOCCOCCOCCOCCOCCOCCOCCNC(=O)Cn3c(=O)n([C@H](C)c4ccccn4)c4c5cc(OC)c(-c6c(C)noc6C)cc5ncc43)c2C)-n2c(C)nnc21 (stereo partly drawn) [2S+IBET-PEG7 (28)] |  |
| 7.92 | 7.27 | COc1cc2c(cc1-c1c(C)noc1C)ncc1c2n([C@H](C)c2ccccn2)c(=O)n1CC(=O)NCCOCCNC(=O)C[C@@H]1N=C(c2ccc(Cl)cc2)c2c(sc(C)c2C)-n2c(C)nnc21 [6S+IBET-PEG1 (18)] |  |
| 8.00 | 7.23 | COc1cc2c(cc1-c1c(C)noc1C)ncc1c2n([C@H](C)c2ccccn2)c(=O)n1CC(=O)NCCOCCOCCNC(=O)C[C@@H]1N=C(c2ccc(Cl)cc2)c2c(sc(C)c2C)-n2c(C)nnc21 [6S+IBET-PEG2 (19)] | pKd [3]: 10.21 |
| 8.24 | 7.56 | COc1cc2c(cc1-c1c(C)noc1C)ncc1c2n([C@H](C)c2ccccn2)c(=O)n1CC(=O)NCCOCCOCCOCCNC(=O)C[C@@H]1N=C(c2ccc(Cl)cc2)c2c(sc(C)c2C)-n2c(C)nnc21 [6S+IBET-PEG3 (20)] |  |
| 8.21 | 7.53 | COc1cc2c(cc1-c1c(C)noc1C)ncc1c2n([C@H](C)c2ccccn2)c(=O)n1CC(=O)NCCOCCOCCOCCOCCNC(=O)C[C@@H]1N=C(c2ccc(Cl)cc2)c2c(sc(C)c2C)-n2c(C)nnc21 [6S+IBET-PEG4 (21)] |  |
| 8.21 | 7.94 | COc1cc2c(cc1-c1c(C)noc1C)ncc1c2n([C@H](C)c2ccccn2)c(=O)n1CC(=O)NCCOCCOCCOCCOCCOCCOCCOCCNC(=O)C[C@@H]1N=C(c2ccc(Cl)cc2)c2c(sc(C)c2C)-n2c(C)nnc21 [6S+IBET-PEG7 (22)] |  |
|  | 8.93 | COC(=O)C[C@@H]1N=C(c2ccc(Cl)cc2)c2c(sc(C(=O)NCCOCCNC(=O)c3sc4c(c3C)C(c3ccc(Cl)cc3)=N[C@H](CC(=O)OC)c3nnc(C)n3-4)c2C)-n2c(C)nnc21 [(2S+2S)-PEG1 (5)] |  |
| 8.63 | 8.45 | COC(=O)C[C@@H]1N=C(c2ccc(Cl)cc2)c2c(sc(C(=O)NCCNC(=O)C[C@@H]3N=C(c4ccc(Cl)cc4)c4c(sc(C)c4C)-n4c(C)nnc43)c2C)-n2c(C)nnc21 [(6S+2S)-PEG0 (6)] | pKd [4]: 10.33; pKd [3]: 10.47 |
| 9.24 |  | COC(=O)C[C@@H]1N=C(c2ccc(Cl)cc2)c2c(sc(C(=O)NCCOCCNC(=O)C[C@@H]3N=C(c4ccc(Cl)cc4)c4c(sc(C)c4C)-n4c(C)nnc43)c2C)-n2c(C)nnc21 [(6S+2S)-PEG1 (7)] | pKi [5]: 9.54; pKd [6]: 10.18; pKi [7]: 11.57; pKi [8]: 9.96; pKi [9]: 9.38; pKi [10]: 9.89; pKd [11]: 10.41 |
| 8.74 | 8.89 | COC(=O)C[C@@H]1N=C(c2ccc(Cl)cc2)c2c(sc(C(=O)NCCOCCOCCNC(=O)C[C@@H]3N=C(c4ccc(Cl)cc4)c4c(sc(C)c4C)-n4c(C)nnc43)c2C)-n2c(C)nnc21 [(6S+2S)-PEG2 (8)] | pKd [4]: 11.04; pKd [3]: 10.85 |
| 9.06 | 8.65 | COC(=O)C[C@@H]1N=C(c2ccc(Cl)cc2)c2c(sc(C(=O)NCCOCCOCCOCCNC(=O)C[C@@H]3N=C(c4ccc(Cl)cc4)c4c(sc(C)c4C)-n4c(C)nnc43)c2C)-n2c(C)nnc21 [(6S+2S)-PEG3 (9)] | pKd [4]: 11.12; pKd [3]: 10.54 |
| 8.96 | 8.53 | COC(=O)C[C@@H]1N=C(c2ccc(Cl)cc2)c2c(sc(C(=O)NCCOCCOCCOCCOCCNC(=O)C[C@@H]3N=C(c4ccc(Cl)cc4)c4c(sc(C)c4C)-n4c(C)nnc43)c2C)-n2c(C)nnc21 [(6S+2S)-PEG4 (10)] | pKd [4]: 11.18; pKd [3]: 10.64 |
| 8.80 | 9.10 | COC(=O)C[C@@H]1N=C(c2ccc(Cl)cc2)c2c(sc(C(=O)NCCOCCOCCOCCOCCOCCOCCOCCNC(=O)C[C@@H]3N=C(c4ccc(Cl)cc4)c4c(sc(C)c4C)-n4c(C)nnc43)c2C)-n2c(C)nnc21 [(6S+2S)-PEG7 (11)] | pKd [4]: 11.23; pKd [3]: 10.59 |
| 6.69 | 6.68 | COc1cc2c(cc1-c1c(C)noc1C)ncc1c2n([C@H](C)c2ccccn2)c(=O)n1CC(=O)NCCNC(=O)Cn1c(=O)n([C@@H](C)c2ccccn2)c2c3cc(OC)c(-c4c(C)noc4C)cc3ncc21 [IBETx2-PEG0 (29)] |  |
| 6.69 | 6.97 | COc1cc2c(cc1-c1c(C)noc1C)ncc1c2n([C@H](C)c2ccccn2)c(=O)n1CC(=O)NCCOCCNC(=O)Cn1c(=O)n([C@@H](C)c2ccccn2)c2c3cc(OC)c(-c4c(C)noc4C)cc3ncc21 [IBETx2-PEG1 (30)] |  |
| 6.91 | 6.93 | COc1cc2c(cc1-c1c(C)noc1C)ncc1c2n([C@H](C)c2ccccn2)c(=O)n1CC(=O)NCCOCCOCCNC(=O)Cn1c(=O)n([C@@H](C)c2ccccn2)c2c3cc(OC)c(-c4c(C)noc4C)cc3ncc21 [IBETx2-PEG2 (31)] |  |
| 7.19 | 7.27 | COc1cc2c(cc1-c1c(C)noc1C)ncc1c2n([C@H](C)c2ccccn2)c(=O)n1CC(=O)NCCOCCOCCOCCNC(=O)Cn1c(=O)n([C@@H](C)c2ccccn2)c2c3cc(OC)c(-c4c(C)noc4C)cc3ncc21 [IBETx2-PEG3 (32)] |  |
| 7.22 | 7.13 | COc1cc2c(cc1-c1c(C)noc1C)ncc1c2n([C@H](C)c2ccccn2)c(=O)n1CC(=O)NCCOCCOCCOCCOCCNC(=O)Cn1c(=O)n([C@@H](C)c2ccccn2)c2c3cc(OC)c(-c4c(C)noc4C)cc3ncc21 [IBETx2-PEG4 (33)] |  |
| 7.87 | 7.52 | COc1cc2c(cc1-c1c(C)noc1C)ncc1c2n([C@H](C)c2ccccn2)c(=O)n1CC(=O)NCCOCCOCCOCCOCCOCCOCCOCCNC(=O)Cn1c(=O)n([C@@H](C)c2ccccn2)c2c3cc(OC)c(-c4c(C)noc4C)cc3ncc21 [IBETx2-PEG7 (34)] |  |
|  |  | Cc1sc2c(c1C)C(c1ccc(Cl)cc1)=NC(CC(=O)NCCOCCOCCOCCOCCOCCOCCOCCNC(=O)C[C@@H]1N=C(c3ccc(Cl)cc3)c3c(sc(C)c3C)-n3c(C)nnc31)c1nnc(C)n1-2 (stereo partly drawn) [MTI (35)] | pKi [7]: 10.15; pKi [12]: 10.62 |

| SMILES | pIC50 [1] | pIC50 [2] | other results |
| --- | --- | --- | --- |
| COC(=O)CC1N=C(c2ccc(Cl)cc2)c2c(sc(C(=O)NCCNC(=O)Cn3c(=O)n([C@H](C)c4ccccn4)c4c5cc(OC)c(-c6c(C)noc6C)cc5ncc43)c2C)-n2c(C)nnc21 (stereo partly drawn) [2S+IBET-PEG0 (23)] | 6.22 | 6.36 |  |
| COc1cc2c(cc1-c1c(C)noc1C)ncc1c2n([C@H](C)c2ccccn2)c(=O)n1CC(=O)NCCNC(=O)C[C@@H]1N=C(c2ccc(Cl)cc2)c2c(sc(C)c2C)-n2c(C)nnc21 [6S+IBET-PEG0 (17)] | 6.83 | 6.39 |  |
